Consider one compound from ChEMBL document CHEMBL3351570, “Design and synthesis of 2-phenylnaphthalenoids as inhibitors of DNA topoisomeraseIIα and antitumor agents” (Eur J Med Chem, 2014).

Broadly, the IC50 is the concentration that inhibits the measured activity by half. A high value points to weaker potency. What is called inhibition in vivo is the drop in the measured response relative to a control, in per cent.

The source made the active and inactive calls. The rule behind the calls is not given here.

Data set [1] concerns MDA-MB-231. As to the kind of experiment: Effect on cdc2 protein expression in human MDA-MB-231 cells at 1 to 5 uM after 24 hrs by Western blot method. The format is functional, cell-based. A general note: In western blotting, separated proteins are transferred to a membrane and probed.
In data set [2] the test system is MDA-MB-231. As to the kind of experiment: Induction of DNA damage in human MDA-MB-231 cells assessed as increase in p53 S46 phosphorylation at 1 to 5 uM after 24 hrs by Western blot method. The format is functional, cell-based.
Data set [3] has as its system MDA-MB-231. The experiment in a line: Induction of DNA damage in human MDA-MB-231 cells assessed as ATM expression level at 1 to 5 uM after 24 hrs by Western blot method. The format is functional, cell-based.
Data set [4] deals with MDA-MB-231. As to the kind of experiment: Induction of DNA damage in human MDA-MB-231 cells assessed as ATM S1981 phosphorylation at 1 to 5 uM after 24 hrs by Western blot method. The class given is functional, cell-based.
In data set [5] the target is DNA topoisomerase 2-alpha (Homo sapiens) (UniProt P11388). The experiment in a line: Inhibition of human recombinant topoisomerase 2alpha assessed as reduction in kDNA decatenation at 100 uM incubated for 30 mins by DNA gel electrophoresis.
Sequence of DNA topoisomerase 2-alpha (Homo sapiens) (P11388 whole entry): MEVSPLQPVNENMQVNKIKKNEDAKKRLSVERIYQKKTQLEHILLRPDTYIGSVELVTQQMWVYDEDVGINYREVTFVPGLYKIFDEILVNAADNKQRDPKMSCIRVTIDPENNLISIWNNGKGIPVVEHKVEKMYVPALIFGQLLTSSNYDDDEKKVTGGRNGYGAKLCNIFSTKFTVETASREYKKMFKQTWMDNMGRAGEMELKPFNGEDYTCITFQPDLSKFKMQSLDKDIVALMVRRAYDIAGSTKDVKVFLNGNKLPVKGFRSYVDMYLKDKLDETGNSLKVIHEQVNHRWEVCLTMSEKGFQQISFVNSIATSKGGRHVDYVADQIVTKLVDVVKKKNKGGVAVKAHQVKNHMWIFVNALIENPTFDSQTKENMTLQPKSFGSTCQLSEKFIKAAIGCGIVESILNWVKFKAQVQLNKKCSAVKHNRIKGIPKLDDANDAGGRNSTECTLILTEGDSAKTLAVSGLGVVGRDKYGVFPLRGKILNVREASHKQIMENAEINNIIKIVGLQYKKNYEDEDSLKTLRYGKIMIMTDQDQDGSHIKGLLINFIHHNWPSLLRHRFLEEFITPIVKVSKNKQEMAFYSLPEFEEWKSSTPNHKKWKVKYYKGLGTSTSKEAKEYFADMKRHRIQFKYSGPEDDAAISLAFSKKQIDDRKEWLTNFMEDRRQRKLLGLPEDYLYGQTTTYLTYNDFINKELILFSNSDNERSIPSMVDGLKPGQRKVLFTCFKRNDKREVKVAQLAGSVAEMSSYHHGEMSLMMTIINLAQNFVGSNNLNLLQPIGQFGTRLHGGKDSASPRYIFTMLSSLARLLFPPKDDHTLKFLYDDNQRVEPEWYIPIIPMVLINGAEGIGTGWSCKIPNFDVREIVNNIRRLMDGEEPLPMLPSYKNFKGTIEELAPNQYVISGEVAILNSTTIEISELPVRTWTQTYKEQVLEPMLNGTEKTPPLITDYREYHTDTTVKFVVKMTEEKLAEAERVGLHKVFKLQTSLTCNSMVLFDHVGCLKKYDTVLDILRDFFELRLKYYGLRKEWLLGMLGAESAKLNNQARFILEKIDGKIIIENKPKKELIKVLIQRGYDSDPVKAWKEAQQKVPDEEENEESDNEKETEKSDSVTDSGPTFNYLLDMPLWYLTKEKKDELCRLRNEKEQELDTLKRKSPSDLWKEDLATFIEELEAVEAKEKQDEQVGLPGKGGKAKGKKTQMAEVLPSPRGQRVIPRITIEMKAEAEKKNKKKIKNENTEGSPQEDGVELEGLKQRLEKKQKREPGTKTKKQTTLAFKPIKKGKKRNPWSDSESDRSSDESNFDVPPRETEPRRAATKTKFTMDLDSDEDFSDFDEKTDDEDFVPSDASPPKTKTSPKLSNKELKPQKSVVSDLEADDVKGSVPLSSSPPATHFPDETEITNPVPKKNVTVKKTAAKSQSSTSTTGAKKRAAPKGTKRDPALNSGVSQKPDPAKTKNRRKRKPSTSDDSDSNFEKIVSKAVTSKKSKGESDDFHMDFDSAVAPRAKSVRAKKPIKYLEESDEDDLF
In data set [6] the test system is MDA-MB-231. The experiment in a line: Induction of DNA damage in human MDA-MB-231 cells assessed as increase in p53 expression level at 1 to 5 uM after 24 hrs by Western blot method. The class given is functional, cell-based.
In data set [7] the test system is MDA-MB-231. The experiment in a line: Increase in histone H3 Ser10 phosphorylation in human MDA-MB-231 cells at 1 to 5 uM after 24 hrs by Western blot method. The format is functional, cell-based.
Data set [8] deals with MDA-MB-231. The experiment in a line: Induction of DNA damage in human MDA-MB-231 cells assessed as ATR expression level at 1 to 5 uM after 24 hrs by Western blot method. The class given is functional, cell-based.
Data set [9] concerns the target DNA topoisomerase 2-alpha (Homo sapiens) (UniProt P11388). As to the kind of experiment: Inhibition of human recombinant topoisomerase 2alpha assessed as increase in linear DNA using circular supercoiled plasmid DNA substrate at 100 to 200 uM incubated for 30 mins by ethidium bromide staining based DNA gel electrophoresis.
Data set [10] has as its system MDA-MB-231. As to the kind of experiment: Increase in cyclin B protein expression in human MDA-MB-231 cells at 1 to 5 uM after 24 hrs by Western blot method. The class given is functional, cell-based.
In a further data set the test system is HeLa. As to the kind of experiment: Cytotoxicity against human HeLa cells after 72 hrs by sulforhodamine B assay. The format is functional, cell-based. In general terms: Sulforhodamine B stains cellular protein and so reports cell mass.
Data set [11] concerns the target DNA topoisomerase 2-alpha (Homo sapiens) (UniProt P11388). The experiment in a line: Inhibition of human recombinant topoisomerase 2alpha assessed as reduction in pBR322 DNA relaxation at 100 uM incubated for 30 mins by DNA gel electrophoresis.
Data set [12] shares this target. The experiment in a line: Inhibition of human recombinant topoisomerase 2alpha assessed as reduction in pBR322 DNA relaxation incubated for 30 mins by DNA gel electrophoresis.
The subject of data set [13] is MDA-MB-231. As to the kind of experiment: Induction of DNA damage in human MDA-MB-231 cells assessed as increase in gammaH2AX protein expression at 1 to 5 uM after 24 hrs by Western blot method. The format is functional, cell-based.
Data set [14] relates to MDA-MB-231. As to the kind of experiment: Cytotoxicity against human MDA-MB-231 cells after 72 hrs by sulforhodamine B assay. The class given is functional, cell-based. Conditions: MDA-MB-231, 72 h.
Data set [15] deals with MDA-MB-231. As to the kind of experiment: Induction of DNA damage in human MDA-MB-231 cells assessed as increase in ATR S428 phosphorylation at 1 to 5 uM after 24 hrs by Western blot method. The format is functional, cell-based.
In data set [16] the test system is MDA-MB-231. The experiment in a line: Induction of cell cycle arrest in human MDA-MB-231 cells assessed as accumulation at G2/M phase at 5 uM after 24 hrs by propidium iodide staining based flow cytometry (reference value: 25.19%). The format is functional.
The target of data set [17] is DNA topoisomerase 2-alpha (Homo sapiens) (UniProt P11388). The experiment in a line: Inhibition of human recombinant topoisomerase 2alpha assessed as reduction in pBR322 DNA relaxation at 200 uM incubated for 30 mins by DNA gel electrophoresis.
For data set [18], the system named is MDA-MB-231. As to the kind of experiment: Antitumor activity against human MDA-MB-231 cells xenografted in BALB/c-nu mouse assessed as reduction in tumor weight at 20 mg/kg, iv dosed every other day for 15 days. The format is functional. Conditions: MDA-MB-231, 360 h. (In general: In xenograft studies the graft and the host belong to different species.)
In a further data set the test system is Mus musculus. As to the kind of experiment: Toxicity in nude BALB/c mouse xenografted with human MDA-MB-231 cells assessed as reduction in body weight at 20 mg/kg, iv dosed every other day for 15 days (reference value: 24.2 g). The format is organism-based. Conditions: in vivo, 360 h. On the set-up: dose 20 mg/kg, route intravenous.
In data set [19] the test system is MDA-MB-231. As to the kind of experiment: Induction of cell cycle arrest in human MDA-MB-231 cells assessed as reduction in accumulation at G0/G1 phase at 5 uM after 24 hrs by propidium iodide staining based flow cytometry. The class given is functional.
The subject of a further data set is A549. As to the kind of experiment: Cytotoxicity against human A549 cells after 72 hrs by sulforhodamine B assay. The format is functional, cell-based. The conditions noted are these: A549, 72 h.
For the next data set, the system named is Nucleic Acid. The experiment in a line: Induction of DNA intercalation in Escherichia coli pBR322 DNA at 50 to 200 uM by DNA gel electrophoresis. The format is nucleic-acid assay.
Data set [20] relates to MDA-MB-231. As to the kind of experiment: Induction of cell cycle arrest in human MDA-MB-231 cells assessed as reduction in accumulation at S phase at 5 uM after 24 hrs by propidium iodide staining based flow cytometry. The class given is functional.

Regarding `OCc1cc(-c2ccc3cc(O)ccc3c2)ccc1O`, the outcome in the data set with MDA-MB-231 [1], in the data set with MDA-MB-231 [3], in the data set with MDA-MB-231 [4], in the data set with MDA-MB-231 [8] and with Nucleic Acid was inactive. For the same compound, the outcome with MDA-MB-231 [2], in the data set on MDA-MB-231 [6], with MDA-MB-231 [7], with MDA-MB-231 [10], in the data set on MDA-MB-231 [15] and with MDA-MB-231 [19] was Active. The outcome with MDA-MB-231 [20] was Active. Further, the inhibition result in [5], in [9], in data set [11] and in [17] was “Active” each time. The IC50 is 1300 nM in the data set with HeLa, 1000 nM with MDA-MB-231 [14] and 2800 nM in the data set on A549. Also, the inhibition entry in data set [12] was “Dose-dependent effect”. The Activity result with MDA-MB-231 [13] is “Dose-dependent effect”; in the data set with MDA-MB-231 [16] it was 77.79%; in the data set with Mus musculus, “Non-toxic”. The inhibition in vivo at 20 mg/kg with MDA-MB-231 [18] turned out to be 43.1%.
